Data taken from US12564193B2, “Isoxazoline-substituted benzamide derivative, and preparation method therefor and use thereof” (SHANDONG UNITED PESTICIDE INDUSTRY CO., LTD., priority 2020, dated 2026).
Read-outs that look alike come from different tables or passages of the source.

Tests used:
Type in all cases: in vivo
[1] = test system: Frankliniella occidentalis; test: Insecticidal activity, spray on pre-infested radish plants: Frankliniella occidentalis; conditions: for pest or weed control at 1 ppm / pest or weed control at 10 ppm / pest or weed control at 25 ppm: Frankliniella occidentalis, 144 h, read-out: fatality rate on Frankliniella occidentalis; for Fatality rate on Frankliniella occidentalis (%): Table 3
Procedure: (§1) For determination of insecticidal activity, the test method was as follows: a test solution with a desired concentration was prepared by dissolving a test compound sample in a suitable solvent (the kind of solvent was such as acetone, methanol, DMSO, etc., and was selected according to its dissolving ability for the sample). The test cell was composed of a small open container with 12-15 day old radish plants inside. The plants were pre-infested by placing 30-40 pests located on one leaf cut from the cultivated plant on one leaf of the test plant (leaf cutting method). As the leaves dehydrated, the pests moved on the test plants. After the pre-infesting, the soil of the test cells was covered with a layer of sand.
The test method was as follows: the test was repeated for three times, and after spraying the formulated test compound, each test unit was allowed to dry for 1 hour, and then a black mesh cover was placed at the top. The test units were kept in a growth chamber at 25° C. and 70% relative humidity for 6 days. The mortality (fatality rate) of the insects was then visually assessed for each test unit, and the fatality rate was calculated as follows:
[formula] (1) Test Results for the Control of Frankliniella occidentalis by Exemplary Example Compounds

Plutella xylostella = test: Insecticidal activity, spray on pre-infested radish plants: Plutella xylostella; conditions: for pest or weed control at 0.1 ppm / pest or weed control at 1 ppm / pest or weed control at 10 ppm: Plutella xylostella, 144 h, read-out: fatality rate on Plutella xylostella; for Fatality rate on Plutella xylostella (%): Table 3
Procedure: as §1
(§2) The test method was as follows: the test was repeated for three times, and after spraying the formulated test compound, each test unit was allowed to dry for 1 hour, and then a black mesh cover was placed at the top. The test units were kept in a growth chamber at 25° C. and 70% relative humidity for 6 days. The mortality (fatality rate) of the insects was then visually assessed for each test unit, and the fatality rate was calculated as follows: […]

Pieris rapae = test: Insecticidal activity, spray on pre-infested radish plants: Pieris rapae; conditions: 144 h, read-out: fatality rate on Pieris rapae
Procedure: as §1, §2

Mythimna separata = test: Insecticidal activity, spray on pre-infested radish plants: Mythimna separata; conditions: for pest or weed control at 0.1 ppm / pest or weed control at 1 ppm / pest or weed control at 10 ppm: Mythimna separata, 144 h, read-out: fatality rate on Mythimna separata; for Fatality rate on Mythimna separata (%): Table 3
Procedure: as §1, §2

Spodoptera litura = test: Insecticidal activity, spray on pre-infested radish plants: Spodoptera litura; conditions: 144 h, read-out: fatality rate on Spodoptera litura
Procedure: as §1, §2

Chilo suppressalis = test: Insecticidal activity, spray on pre-infested radish plants: Chilo suppressalis; conditions: for pest or weed control at 0.1 ppm / pest or weed control at 1 ppm / pest or weed control at 10 ppm: Chilo suppressalis, 144 h, read-out: fatality rate on Chilo suppressalis; for Fatality rate on Chilo suppressalis (%): Table 3
Procedure: as §1, §2

Cnaphalocrocis medinalis = test: Insecticidal activity, spray on pre-infested radish plants: Cnaphalocrocis medinalis; conditions: 144 h, read-out: fatality rate on Cnaphalocrocis medinalis
Procedure: as §1, §2

Tetranychus cinnabarinus = test: Acaricidal activity, slide immersion of female adult mites: Tetranychus cinnabarinus; conditions: read-out: fatality rate on Tetranychus cinnabarinus
Procedure: The test method was as follows: a test solution with a desired concentration was prepared by dissolving a test compound sample in a suitable solvent (the kind of solvent was such as acetone, methanol, DMSO, etc., and was selected according to its dissolving ability for the sample). A double-sided adhesive tape was cut into 2-3 cm long pieces, the pieces were attached to one end of a microscope slide, paper pieces on the adhesive tape were removed using tweezers, female adult mites which were consistent in size, bright in body color and lively in action were selected using a zero-size brush pen, the backs of the female adult mites were adhered to the double-sided adhesive tape (note: the adhesion should not cover mite feet, mite whiskers and mouthparts), with 4 rows of mites adhered to each piece and 10 heads of the mites adhered to each row.
One end of the glass slide with the mites was immersed into a drug liquid, with slightly shaking for 5 seconds, and then the slide was taken out. The excess drug liquid around the mite body and is surroundings is quickly sucked off using absorbent paper. The slide was placed in the biochemical incubator described above, and the results were checked by using binoculars after 24 hours. The mites were slightly touched by using a brush pen, the mites with immobility in feet were considered to be dead, and the fatality rate was calculated. The fatality rate was calculated as follows: […]

[2] = dose 1 ppm, immersion 5 seconds, checked after 24 hours
[3] = dose 10 ppm, immersion 5 seconds, checked after 24 hours
[4] = dose 25 ppm, immersion 5 seconds, checked after 24 hours

Cc1cc(C2=NOC(c3cc(F)c(F)c(F)c3)(C(F)(F)F)C2)ccc1C(=O)NCc1cnc(Cl)cc1C(F)(F)F (stereo not drawn) [Compound 6]
pest or weed control at 1 ppm ([1]; dose 1 ppm, spray, 6 days): > 80%
pest or weed control at 10 ppm ([1]; dose 10 ppm, spray, 6 days): > 80%
pest or weed control at 25 ppm ([1]; dose 25 ppm, spray, 6 days): > 80%
pest or weed control at 0.1 ppm (Plutella xylostella; dose 0.1 ppm, spray, 6 days): > 80%
pest or weed control at 1 ppm (Plutella xylostella; dose 1 ppm, spray, 6 days): > 80%
pest or weed control at 10 ppm (Plutella xylostella; dose 10 ppm, spray, 6 days): > 80%
pest or weed control at 0.1 ppm (Pieris rapae; dose 0.1 ppm, spray, 6 days): > 80%
pest or weed control at 1 ppm (Pieris rapae; dose 1 ppm, spray, 6 days): > 80%
pest or weed control at 10 ppm (Pieris rapae; dose 10 ppm, spray, 6 days): > 80%
pest or weed control at 0.1 ppm (Mythimna separata; dose 0.1 ppm, spray, 6 days): > 80%
pest or weed control at 1 ppm (Mythimna separata; dose 1 ppm, spray, 6 days): > 80%
pest or weed control at 10 ppm (Mythimna separata; dose 10 ppm, spray, 6 days): > 80%
pest or weed control at 0.1 ppm (Spodoptera litura; dose 0.1 ppm, spray, 6 days): > 80%
pest or weed control at 1 ppm (Spodoptera litura; dose 1 ppm, spray, 6 days): > 80%
pest or weed control at 10 ppm (Spodoptera litura; dose 10 ppm, spray, 6 days): > 80%
pest or weed control at 0.1 ppm (Chilo suppressalis; dose 0.1 ppm, spray, 6 days): > 80%
pest or weed control at 1 ppm (Chilo suppressalis; dose 1 ppm, spray, 6 days): > 80%
pest or weed control at 10 ppm (Chilo suppressalis; dose 10 ppm, spray, 6 days): > 80%
pest or weed control at 0.1 ppm (Cnaphalocrocis medinalis; dose 0.1 ppm, spray, 6 days): > 80%
pest or weed control at 1 ppm (Cnaphalocrocis medinalis; dose 1 ppm, spray, 6 days): > 80%
pest or weed control at 10 ppm (Cnaphalocrocis medinalis; dose 10 ppm, spray, 6 days): > 80%
pest or weed control at 1 ppm (Tetranychus cinnabarinus; [2]): > 80%
pest or weed control at 10 ppm (Tetranychus cinnabarinus; [3]): > 80%
pest or weed control at 25 ppm (Tetranychus cinnabarinus; [4]): > 80%

Cc1cc(C2=NOC(c3cc(Cl)c(F)c(Cl)c3)(C(F)(F)F)C2)ccc1C(=O)NCc1cnc(Cl)cc1Cl (stereo not drawn) [Compound 7]
pest or weed control at 1 ppm [1]: > 80%
pest or weed control at 10 ppm [1]: > 80%
pest or weed control at 25 ppm [1]: > 80%
pest or weed control at 0.1 ppm (Plutella xylostella): > 80%
pest or weed control at 1 ppm (Plutella xylostella): > 80%
pest or weed control at 10 ppm (Plutella xylostella): > 80%
pest or weed control at 0.1 ppm (Pieris rapae): > 80%
pest or weed control at 1 ppm (Pieris rapae): > 80%
pest or weed control at 10 ppm (Pieris rapae): > 80%
pest or weed control at 0.1 ppm (Mythimna separata): > 80%
pest or weed control at 1 ppm (Mythimna separata): > 80%
pest or weed control at 10 ppm (Mythimna separata): > 80%
pest or weed control at 0.1 ppm (Spodoptera litura): > 80%
pest or weed control at 1 ppm (Spodoptera litura): > 80%
pest or weed control at 10 ppm (Spodoptera litura): > 80%
pest or weed control at 0.1 ppm (Chilo suppressalis): > 80%
pest or weed control at 1 ppm (Chilo suppressalis): > 80%
pest or weed control at 10 ppm (Chilo suppressalis): > 80%
pest or weed control at 0.1 ppm (Cnaphalocrocis medinalis): > 80%
pest or weed control at 1 ppm (Cnaphalocrocis medinalis): > 80%
pest or weed control at 10 ppm (Cnaphalocrocis medinalis): > 80%
pest or weed control at 1 ppm (Tetranychus cinnabarinus; 24 h): > 80%
pest or weed control at 10 ppm (Tetranychus cinnabarinus; 24 h): > 80%
pest or weed control at 25 ppm (Tetranychus cinnabarinus; 24 h): > 80%

Cc1cc(C2=NOC(c3cc(F)c(F)c(F)c3)(C(F)(F)F)C2)ccc1C(=O)NCc1cnc(Cl)cc1Cl (stereo not drawn) [Compound 8]
pest or weed control at 1 ppm ([1]; dose 1 ppm, spray, 6 days): > 80%
pest or weed control at 10 ppm ([1]; dose 10 ppm, spray, 6 days): > 80%
pest or weed control at 25 ppm ([1]; dose 25 ppm, spray, 6 days): > 80%
pest or weed control at 0.1 ppm (Plutella xylostella; dose 0.1 ppm, spray, 6 days): > 80%
pest or weed control at 1 ppm (Plutella xylostella; dose 1 ppm, spray, 6 days): > 80%
pest or weed control at 10 ppm (Plutella xylostella; dose 10 ppm, spray, 6 days): > 80%
pest or weed control at 0.1 ppm (Pieris rapae; dose 0.1 ppm, spray, 6 days): > 80%
pest or weed control at 1 ppm (Pieris rapae; dose 1 ppm, spray, 6 days): > 80%
pest or weed control at 10 ppm (Pieris rapae; dose 10 ppm, spray, 6 days): > 80%
pest or weed control at 0.1 ppm (Mythimna separata; dose 0.1 ppm, spray, 6 days): > 80%
pest or weed control at 1 ppm (Mythimna separata; dose 1 ppm, spray, 6 days): > 80%
pest or weed control at 10 ppm (Mythimna separata; dose 10 ppm, spray, 6 days): > 80%
pest or weed control at 0.1 ppm (Spodoptera litura; dose 0.1 ppm, spray, 6 days): > 80%
pest or weed control at 1 ppm (Spodoptera litura; dose 1 ppm, spray, 6 days): > 80%
pest or weed control at 10 ppm (Spodoptera litura; dose 10 ppm, spray, 6 days): > 80%
pest or weed control at 0.1 ppm (Chilo suppressalis; dose 0.1 ppm, spray, 6 days): > 80%
pest or weed control at 1 ppm (Chilo suppressalis; dose 1 ppm, spray, 6 days): > 80%
pest or weed control at 10 ppm (Chilo suppressalis; dose 10 ppm, spray, 6 days): > 80%
pest or weed control at 0.1 ppm (Cnaphalocrocis medinalis; dose 0.1 ppm, spray, 6 days): > 80%
pest or weed control at 1 ppm (Cnaphalocrocis medinalis; dose 1 ppm, spray, 6 days): > 80%
pest or weed control at 10 ppm (Cnaphalocrocis medinalis; dose 10 ppm, spray, 6 days): > 80%
pest or weed control at 1 ppm (Tetranychus cinnabarinus; [2]): > 80%
pest or weed control at 10 ppm (Tetranychus cinnabarinus; [3]): > 80%
pest or weed control at 25 ppm (Tetranychus cinnabarinus; [4]): > 80%

Cc1cc(C2=NOC(c3cc(Cl)c(F)c(Cl)c3)(C(F)(F)F)C2)ccc1C(=O)NCc1ncc(C(F)(F)F)cc1Cl (stereo not drawn) [Compound 9, N-((3-chloro-5-(trifluoromethyl)pyridin-2-yl)methyl)-4-(5-(3,5-dichloro-4-fluorophenyl)-5-(trifluoromethyl)-4,5-dihydroisoxazol-3-yl)-2-methylbenzamide]
Fatality rate on Frankliniella occidentalis (%) ([1]; 1 ppm): 95%
Fatality rate on Frankliniella occidentalis (%) ([1]; 10 ppm): 100%
Fatality rate on Frankliniella occidentalis (%) ([1]; 25 ppm): 100%
pest or weed control at 1 ppm [1]: > 80%
pest or weed control at 10 ppm [1]: > 80%
pest or weed control at 25 ppm [1]: > 80%
Fatality rate on Plutella xylostella (%) (Plutella xylostella; 0.1 ppm): 100%
Fatality rate on Plutella xylostella (%) (Plutella xylostella; 1 ppm): 100%
Fatality rate on Plutella xylostella (%) (Plutella xylostella; 10 ppm): 100%
pest or weed control at 0.1 ppm (Plutella xylostella): > 80%
pest or weed control at 1 ppm (Plutella xylostella): > 80%
pest or weed control at 10 ppm (Plutella xylostella): > 80%
pest or weed control at 0.1 ppm (Pieris rapae): > 80%
pest or weed control at 1 ppm (Pieris rapae): > 80%
pest or weed control at 10 ppm (Pieris rapae): > 80%
Fatality rate on Mythimna separata (%) (Mythimna separata; 0.1 ppm): 100%
Fatality rate on Mythimna separata (%) (Mythimna separata; 1 ppm): 100%
Fatality rate on Mythimna separata (%) (Mythimna separata; 10 ppm): 100%
pest or weed control at 0.1 ppm (Mythimna separata): > 80%
pest or weed control at 1 ppm (Mythimna separata): > 80%
pest or weed control at 10 ppm (Mythimna separata): > 80%
pest or weed control at 0.1 ppm (Spodoptera litura): > 80%
pest or weed control at 1 ppm (Spodoptera litura): > 80%
pest or weed control at 10 ppm (Spodoptera litura): > 80%
Fatality rate on Chilo suppressalis (%) (Chilo suppressalis; 0.1 ppm): 95%
Fatality rate on Chilo suppressalis (%) (Chilo suppressalis; 1 ppm): 100%
Fatality rate on Chilo suppressalis (%) (Chilo suppressalis; 10 ppm): 100%
pest or weed control at 0.1 ppm (Chilo suppressalis): > 80%
pest or weed control at 1 ppm (Chilo suppressalis): > 80%
pest or weed control at 10 ppm (Chilo suppressalis): > 80%
pest or weed control at 0.1 ppm (Cnaphalocrocis medinalis): > 80%
pest or weed control at 1 ppm (Cnaphalocrocis medinalis): > 80%
pest or weed control at 10 ppm (Cnaphalocrocis medinalis): > 80%
pest or weed control at 1 ppm (Tetranychus cinnabarinus; 24 h): > 80%
pest or weed control at 10 ppm (Tetranychus cinnabarinus; 24 h): > 80%
pest or weed control at 25 ppm (Tetranychus cinnabarinus; 24 h): > 80%
